Measured values as given in US20140137294A1, “GLUCOSINOLATE TRANSPORTER PROTEIN AND USES THEREOF” (UNIVERSITY OF COPENHAGEN, priority 2010, published 2014).

Target: T1, AtGTR1 (Arabidopsis thaliana, UniProt Q944G5)
T1 construct: A library of Arabidopsis transporters available as full length cDNAs from the RIKEN bioresource center; expressed in transfected cells; host or cells: Xenopus oocytes injected with in vitro transcribed cRNA
T1 sequence (Q944G5 31-636 limits assumed): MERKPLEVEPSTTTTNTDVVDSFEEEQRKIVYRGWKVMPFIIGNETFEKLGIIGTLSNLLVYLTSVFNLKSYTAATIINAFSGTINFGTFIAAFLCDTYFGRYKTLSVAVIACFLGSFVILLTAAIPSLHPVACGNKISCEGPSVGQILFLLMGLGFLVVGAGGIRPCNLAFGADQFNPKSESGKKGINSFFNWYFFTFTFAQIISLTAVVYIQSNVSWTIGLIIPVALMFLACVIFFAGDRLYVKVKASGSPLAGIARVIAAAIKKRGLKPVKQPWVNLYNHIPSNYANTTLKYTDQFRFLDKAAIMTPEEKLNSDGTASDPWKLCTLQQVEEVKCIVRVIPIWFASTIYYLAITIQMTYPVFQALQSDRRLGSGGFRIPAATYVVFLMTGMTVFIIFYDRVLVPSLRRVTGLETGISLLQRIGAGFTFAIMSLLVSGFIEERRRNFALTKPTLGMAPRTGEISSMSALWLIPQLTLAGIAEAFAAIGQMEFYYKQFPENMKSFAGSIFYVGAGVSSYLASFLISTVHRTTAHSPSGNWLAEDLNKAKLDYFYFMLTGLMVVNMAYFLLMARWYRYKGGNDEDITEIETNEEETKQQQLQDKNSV
Assay: Uptake of C14-labeled pOHBG in AtGTR1 expressing oocytes in presence of excess competitor
Format: cell-based
Conditions: 50× excess unlabeled competitor, AtGTR1, pH 5
Method: FIG. 3: Biochemical analysis of AtGTR1 and 2 mediated GSL transport in Xenopus oocytes. A and B, pH dependence of AtGTR-mediated GSL transport. A, AtGTR2 mediated 4-MTB uptake measured by LC-MS analysis of oocyte extracts, n=3 oocytes. B, AtGTR1 currents induced by 1 mM 4-MTB were measured at different membrane potentials at pH 5 ([…]), pH 6 (♦), and pH 7 (▴). Currents were normalized to the current induced at pH 5 at −60 mV, error bars are SD, n=4 oocytes. C and D, kinetic analysis of AtGTR-mediated glucosinolate transport. […]
The substrate specificity investigations were extended to include substrates previously identified for the NRT/PTR transporter family namely di- and tripeptides and nitrate. […] However, perfusing with 1 mM NO3^− did result in currents but these amounted only to 1/10th of currents measured when perfusing with 100 μM 4-MTB (FIG. 3F). […]
For assays with radiolabeled substrates, single oocytes were ruptured in 100 μl 10% SDS in 4 ml scintillation vials by shaking for 20-30 minutes. 2.5 ml EcoScint™ scintillation fluid (National Diagnostics) was added, and imported compounds quantified by scintillation counting. For assays with unlabeled substrates, oocyte extracts were analysed by LC-MS. Oocytes were analyzed in batches of 5 oocytes per repetition. […]

`CSCCCC/C(=N/OS(=O)(=O)O)S[C@@H]1O[C@H](CO)[C@@H](O)[C@H](O)[C@H]1O` [4-MTB, 4-methylthiobutyl glucosinolate] was tested, and the “effect on uptake of 40 μM C14-labeled pOHBG” value was “reduced the uptake of pOHBG to background levels”.
